Test results published in US20110251135A1, “INHIBITORS OF PERITONEAL SEEDING OF CANCER CELLS” (University of Utah Research Foundation, priority 2008, published 2011).

Legend:
NF-κB = NF-κB electrophoretic mobility shift assay (EMSA), nuclear lysates of treated HT-29 cells; assay type: cell-based, human; details: 10 μM, 3 and 6 hour incubations
DLD-1 and HT-29 cells = assay: Readhesion survival of cells transduced with IκB super-repressor adenovirus (crystal violet); assay type: cell-based, human
Experimental: The percentage of apoptotic cells was determined using the annexin V assay. The data points represent the averages of three experiments; bars, +−.SE. E. DLD-1 and F. HT-29 cells were transduced with an adenovirus containing the IκB super-repressor construct. After 3 days, the cells were transiently suspended and allowed to readhere in the presence of subapoptotic concentrations of BAY 11-7085 or DMSO (vehicle) for 8 hours. The data are expressed as fractions of cells surviving compared with the controls (no adenovirus) and were quantitatively determined by staining the remaining adherent cells with crystal violet.
DLD-1 and HT-29 cells that were approximately 60-70% confluent were transduced with Ad-IκB super-repressor by adding 1-50 μL of purified virus to the cells. […] In a parallel experiment, the transduced cells were resuspended and allowed to readhere in BAY 11-7085 for 8 h. The percentage of surviving (nonapoptotic) cells was determined using crystal violet staining.
The specific involvement of NF-κB in the apoptotic mechanism of BAY 11-7085 was examined specifically. […] The transduced DLD-1 and HT-29 cells were then transiently suspended and allowed to readhere at concentrations of BAY 11-7085 below the in vitro apoptotic threshold (>20 μM) for these cell lines. […] Therefore, inhibition of NF-κB is important to the apoptotic effect of BAY 11-7085 during colon cancer cell readhesion.

HCT-116 cells = assay: Intraabdominal seeding model, intraperitoneal injection of colon cancer cells into athymic mice (21 days); assay type: in vivo, mouse; details: HCT-116 IP in athymic mice; after 21 days; regardless of vehicle or BAY 11-7085
Description: FIG. 6 is a group of photographs showing an intraabdominal seeding model. FIGS. 6A, B, C show tumor implants of the liver of three athymic mice 21 days after receiving intraperitoneal injections of HT-29 cells. The mice were pretreated and treated for a total of 21 days with DMSO twice weekly. […] The mouse was pretreated and treated for a total of 21 days with DMSO twice weekly. FIG. 6E is a micrograph showing tumor invasion through the liver capsule. This section was obtained from the tumor implant from the mouse in FIG. 6A. […] FIG. 6G, (liver), FIG. 6H, (abdominal wall), and FIG. 6I, (intestinal) show tumor implants in three athymic mice 21 days after receiving intraabdominal injections of HCT-116 cells. All of the mice were treated with 5 mg/kg of BAY 11-7085 twice weekly.
HT-29 and HCT-116 cells were harvested in 0.25% trypsin-PBS-EDTA, washed once in media and PBS, and resuspended in PBS at 1 million cells per 200 μL. […] Subcutaneous tumor sizes were determined by measuring the length and width with calipers. […]
During colorectal cancer surgery, seeding of the peritoneal cavity by tumor cells with tumor cell implantation of the peritoneal surfaces can occur. Seeding results from the transient suspension of cancer cells, through a loss of adhesion either naturally ro because of surgical displacement, followed by readhesion to other tissues. […]

NF-κB in HT-29 cells = assay: NF-κB ELISA during readhesion; assay type: cell-based, human; details: colon and pancreatic cancer readhesion
Description: Untreated adherent monolayers (Control) and Jurkat cells treated with TNFα (Jurkat Control) served as controls. The cells were collected and analyzed for NF-κB activation in an ELISA (see Methods). […] The floating and readherent cells were collected and lysed. Aliquots of the cell lysates were used to generate cleaved PARP immunoblots. All lanes contain equal total protein concentrations and the actin blot served as a loading control. The blots shown are typical of duplicate experiments. […] The floating cells were washed away and the adherent cells were then fixed and stained with crystal violet. The cells were lysed in deoxycholate and the intensity of the staining quantified by spectrophotometry. The results are normalized to the controls.
Nuclear lysates were generated, normalized for total protein concentration, and used to determine NF-κB activity in an ELISA kit (Panomics) per the manufacturer's instructions.

For `CC(C)(C)c1ccc(S(=O)(=O)/C=C/C#N)cc1` [BAY 11-7085, (2E)-3-[4-(tertiarybutylphenyl)sulfonyl]-2-propenenitrile], the “inhibition of NF-κB activity (EMSA)” value (NF-κB) was “more profound inhibition of NF-κB activity”, the “in vitro apoptotic threshold” value (DLD-1 and HT-29 cells; DLD-1 and HT-29 cells during readhesion) was > 20 µM and the “apoptotic threshold of BAY 11-7085 compared with the controls” value (DLD-1 and HT-29 cells; DLD-1 and HT-29 expressing IκB super-repressor, readhesion 8 hours) was “significantly lowered the apoptotic threshold”. The “metastases of parietal and visceral peritoneum” value (HCT-116 cells) was “clear evidence of metastases” and the “NF-κB inhibitor potency on a molar basis (comparison)” value (NF-κB in HT-29 cells) was “more potent NF-κB inhibitor than rosiglitazone”.
